“Also recorded” adds a separate entry of the source.
Experiments:
[1] = cited from earlier work
neovascularization = experiment: Contemplated clinical cases: intravitreal or periocular CAI against neovascularization; assay type: in vivo; conditions: contemplated cases: 50 mcg intravitreal (Example 9); 200 mcg intravitreal then periocular sustained-release (Example 10)
Excerpt: The following contemplated clinical cases of angiogenesis are presented as examples of methods of treatment and not as limitations. Other illustrations of treating systemic or localized angiogenesis are not presented, since the principles involved are similar, and will be apparent to the skilled reader based upon review of an individual's clinical manifestation and the preferred embodiments of the inventive compositions.
Person with Proliferative Diabetic Retinopathy and threshold high-risk characteristics presents with Vitreous Hemorrhage. The patient also has atrial fibrillation and ischemic cardiomyopathy that requires oral Coumadin. The patient is intolerant to topical Panretinal Photocoagulation. The INR measured at just less than 2. […] The patients Vitreous Hemorrhage slowly resolves and the patient is able to taper their Coumadin so that Panretinal Photocoagulation can be placed with retrobulbar anesthesia. Alternately, the patient remains on Coumadin and then is treated with a patch periocular insert of CAI to diminish the neovascularization.
Person with a two-week history of central scotoma. They developed a large disciform scar in the contralateral eye after several sessions of photodynamic therapy. On exam and fluorescein angiography is predominately classic subfoveal membrane is noted. […]

[2] = in vivo; cited from earlier work
[3] = systemic CAI; cited from earlier work
[4] = cited from earlier work; remark: listed apart in the source

Compound	concentration detected in the vitreous cavity ([1]; single 5 mg peribulbar injection in humans) [ng/mL]	delivery to the subretinal space, higher following subconjunctival injection ([1]; subconjunctival injection) [fold]	neovascular regression (neovascularization)	physiological tissue concentrations [2]	plasma concentrations associated with unacceptable toxicity [3]	serious side effect associated with clinical use ([4]; systemic administration, two cases described)	toxic effects observed in clinical studies ([4]; systemic oral dosage regimens)
C[C@@H]1C[C@H]2[C@@H]3CCC4=CC(=O)C=C[C@]4(C)[C@@]3(F)[C@@H](O)C[C@]2(C)[C@@]1(O)C(=O)CO [Dexamethasone]	13	10	–	–	–	–	–
NC(=O)c1nnn(Cc2cc(Cl)c(C(=O)c3ccc(Cl)cc3)c(Cl)c2)c1N [CAI]	–	–	some neovascular regression; also recorded: neovascular regression occurs	1-10 μM	above 100 micromolar	loss of vision	cerebellar ataxia, peripheral neuropathy and exacerbation of depression
